# Values of other authors as cited in US8455540B2, “Gossypol and apogossypol derivatives, preparation thereof and uses thereof” (Universite du Maine (Le Mans), priority 2007, dated 2013).
# What was measured:
# [1] = tested on: various types of cancers; conditions: compared with gossypol (apogossypol = deformylated gossypol)
# [2] = tested on: proteins of the Bcl-2 family; conditions: compared with gossypol (apogossypol = deformylated gossypol)
structure (smiles),measurement,setting,value
Cc1cc2c(C(C)C)c(O)c(O)cc2c(O)c1-c1c(C)cc2c(C(C)C)c(O)c(O)cc2c1O [apogossypol],activity on various types of cancers,[1],fully retains its activity
same,activity on proteins of the Bcl-2 family,[2],fully retains its activity
